{"source": "patent US6605641B2", "about": "“20-HETE antagonists and agonists” (MCW Research Foundation, priority 1998, dated 2003)", "key": {"[1]": {"system": "isolated, pressured rat renal interlobular arteries", "assay": "Isolated vessel studies: vasoconstrictor response (vascular diameter) to cumulative doses of 20-HETE analogs", "format": "cell-based", "conditions": "10^−8 to 10^−6 M (up to 1 μM), indomethacin, baicalein, 17-ODYA present, diameter 2 to 3 minutes after addition", "experimental": "General. Experiments were performed on 10 to 12-week old male Sprague-Dawley rats purchased from Harlan Sprague-Dawley Laboratories (Indianapolis, Ind.). The rats were housed in the animal care facility at the Medical College of Wisconsin, which is approved by the American Association for the Accreditation of Laboratory Animal Care. The animals had free access to food and water. All protocols involving animals received approval by the Animal Care Committee of the Medical College of Wisconsin.\n(§1) Isolated vessel studies. Interlobular arterioles (70-120 μm inner diameter) were microdissected from the kidneys of rats. The vessels were mounted on glass micropipettes in a perfusion chamber containing physiological saline solution equilibrated with a 95% O2-5% CO2 gas mixture and maintained at 37° C. The vessel were secured to the pipettes and side branches were tied off with 10-0 silk suture. The inflow pipette was connected to a pressurized reservoir to control of intraluminal perfusion pressure, which was monitored using a transducer (Cobe, Lakewood, Colo.). The vessels were stretched to in vivo length measured before microdissection. The outflow cannula was clamped off and intraluminal pressure was maintained at 90 mm Hg during the experiment. Vascular diameters were measured with a video system composed of a stereo microscope (Carl Zeiss, Inc., Germany), a CCTV television camera (KP-130AU, Hitachi, Japan), a videocassette recorder (AG-7300, Panasonic, Japan), a television monitor (CVM-1271, Sony, Japan), and a video measuring system (VIA-100, Boeckeler Instrument Co., Tucson, Ariz.).\n(§2) The composition of the perfusate and the bath was (in mM): 119 NaCl, 4.7 KCl, 1.17 MgSO4, 1.6 CaCl2, 12 NaHCO3, 1.18 NaH2PO4, 0.03 EDTA and 10 glucose, pH 7.4. Indomethacin (5 μM), baicalein (0.5 μM) and 17-ODYA (1 μM) were added to the bath to block the endogenous formation and metabolism of eicosanoids via the cyclooxygenase, lipoxygenase and cytochrome P450 pathways. After the equilibration period, cumulative dose response curves were generated for each of the 20-HETE analogs.\nEffect of the position of the hydroxyl group on the vasoconstrictor response to 20-HETE. These experiments examined the effects of increasing concentrations of 5(S)-, 8(S)-, 12(S)-, 15(S)-, and 19(S)-HETE on the diameter of isolated, pressured rat renal interlobular arteries. All of these analogs have the same number of carbons, double bonds and molecular weight as 20-HETE (FIG. 1). The major difference between these compounds and 20-HETE is the position of the OH group along the carbon chain. Additional experiments were performed with arachidonic acid and 20-carboxyarachidonic acid, which are structurally similar to 20-HETE but lack a hydroxyl group on the 20th carbon and 20-hydroxyeicosa-6, 15-dienoic acid (reverse 20-HETE) which has the carboxy- and hydroxy-moieties on the 1st and 20th carbons reversed. Cumulative dose response curves were generated for each compound (10^−8 to 10^−6 M) in the presence of indomethacin, baicalein, and 17-ODYA. Vascular diameters were recorded 2 to 3 minutes after the addition of the compounds to the bath.\nEffect of the double bonds and carbon chain length to the vasoconstrictor response to 20-HETE. We next examined the importance of the double bonds and the length of the carbon chain to the vasoconstrictor response to 20-HETE. In these studies, the double bonds in the 20-HETE molecule were removed creating partial and saturated 20-HETE derivatives (20-hydroxyeicosa-6(Z),15(Z) dienoic acid; 20-hydroxyeicosanoic acid, FIG. 1). 20-HETE was also shortened by one carbon, creating a 19-carbon analog (19-hydroxynonadeca-5(Z),8(Z),11(Z),14(Z)-tetraenoic acid, FIG. 1) and double bonds were removed, creating a saturated 19-carbon analog (19 hydroxynonadecanoic acid, FIG. 1). […]"}, "[2]": {"system": "vasoconstrictor response to 20-HETE in isolated renal interlobular arteries", "assay": "20-HETE antagonist activity: dose response curves to 20-HETE before and after addition of analog", "format": "cell-based, rat", "conditions": "for reduction of the vasoconstrictor response to 20-HETE: analog 1 μM in bath, for arachidonic acid response to 1 μM 20-HETE; for effect of analog on the vasoconstrictor response to 20-HETE (antagonist activity): analog 0.5 or 1 μM in bath, 20-HETE 10^−8 to 10^−6 M", "experimental": "We also disclose below a test for 20-HETE antagonist activity. In this analysis, test compounds were analyzed by a cumulative dose response curve to 20-HETE generated before and after the addition of the test compound. […] We envision suitable antagonists as similarly blocking the vasoconstrictor response.\nas §1, §2\n20-HETE antagonist activity. […] In these experiments, cumulative dose response curves to 20-HETE (10^−8 to 10^−6 M) were generated before and after addition of 5(S)-HETE (0.5 μM), 8(S)-HETE (1 μM), 12(S)-HETE (0.5 μM), 15(S)-HETE (1 μM), 19(S)-HETE (1 μM), the C19-analog (1 μM), arachidonic acid (1 μM), 20-carboxy-arachidonic acid (1 μM), reverse 20-HETE (1 μM), saturated 20-HETE (1 μM), and the saturated C19-analog (1 μM) to the bath. Vascular diameters were recorded 2 to 3 minutes after the addition of each dose of 20-HETE to the bath."}}, "note": "Entries after “also recorded” stand apart in the source; their conditions may differ.", "data": [{"compound": "CCCCC/C=C\\C/C=C\\C/C=C\\C/C=C\\CCCC(=O)O", "note": "[arachidonic acid]", "values": [{"measurement": "effect on the diameter of renal interlobular arteries (vasoconstrictor/agonist activity)", "setting": "[1]", "value": "no significant effect; also recorded: does not constrict"}, {"measurement": "reduction of the vasoconstrictor response to 20-HETE", "setting": "[2]", "value": 50, "unit": "%"}, {"measurement": "effect of analog on the vasoconstrictor response to 20-HETE (antagonist activity)", "setting": "[2]", "value": "very effective antagonists"}]}, {"compound": "CCCCC/C=C\\C/C=C\\C/C=C\\C=C\\[C@@H](O)CCCC(=O)O", "note": "[5(S)-HETE]", "values": [{"measurement": "effect on the diameter of renal interlobular arteries (vasoconstrictor/agonist activity)", "setting": "[1]", "value": "no significant effect"}, {"measurement": "effect on the diameter of renal interlobular arteries (vasoconstrictor/agonist activity)", "setting": "[1]; listed as 5-HETE", "value": "no effect"}, {"measurement": "effect of analog on the vasoconstrictor response to 20-HETE (antagonist activity)", "setting": "[2]; listed as 5-HETE", "value": "completely blocked; also recorded: very effective antagonists; also recorded: blocked the vasoconstrictor response to 20-HETE"}]}, {"compound": "CCCCC/C=C\\C[C@H](O)/C=C/C=C\\C/C=C\\CCCC(=O)O", "note": "[12(S)-HETE]", "values": [{"measurement": "effect on the diameter of renal interlobular arteries (vasoconstrictor/agonist activity)", "setting": "[1]", "value": "no significant effect"}, {"measurement": "effect on the diameter of renal interlobular arteries (vasoconstrictor/agonist activity)", "setting": "[1]; listed as 12-HETE", "value": "no effect"}, {"measurement": "effect of analog on the vasoconstrictor response to 20-HETE (antagonist activity)", "setting": "[2]", "value": "no significant effect"}, {"measurement": "effect of analog on the vasoconstrictor response to 20-HETE (antagonist activity)", "setting": "[2]; listed as 12-HETE", "value": "did not antagonize"}]}, {"compound": "O=C(O)CCCC/C=C\\CCCCCCC/C=C\\CCCCO", "note": "[20-Hydroxyeicosa-6(Z),15(Z)-dienoic Acid]", "values": [{"measurement": "effect on the diameter of renal interlobular arteries (vasoconstrictor/agonist activity)", "setting": "[1]", "value": "eliminated agonist activity"}, {"measurement": "effect of analog on the vasoconstrictor response to 20-HETE (antagonist activity)", "setting": "[2]", "value": "completely blocked"}, {"measurement": "effect of analog on the vasoconstrictor response to 20-HETE (antagonist activity)", "setting": "[2]; listed as partially saturated reverse 20-HETE", "value": "completely eliminated the response to 20-HETE"}]}, {"compound": "O=C(O)CCC/C=C\\C/C=C\\C/C=C\\C/C=C\\CCCCCCO", "note": "[21-HETE, 21-Hydroxyheneicosa-5(Z),8(Z),11(Z),14(Z)-tetraenoic Acid]", "values": [{"measurement": "effect on the diameter of renal interlobular arteries (vasoconstrictor/agonist activity)", "setting": "[1]", "value": "just as potent constrictors as 20-HETE"}, {"measurement": "effect on the diameter of renal interlobular arteries (vasoconstrictor/agonist activity)", "setting": "[1]; listed as 21-carbon derivative", "value": "just as potent vasoconstrictors as 20-HETE"}]}, {"compound": "Eicosatetraen-1,20-dioic Acid [20-carboxy-arachidonic acid]", "values": [{"measurement": "effect on the diameter of renal interlobular arteries (vasoconstrictor/agonist activity)", "setting": "[1]", "value": "no significant effect"}, {"measurement": "effect of analog on the vasoconstrictor response to 20-HETE (antagonist activity)", "setting": "[2]", "value": "no significant antagonistic properties"}]}, {"compound": "C[C@H](O)CCC/C=C\\C/C=C\\C/C=C\\C/C=C\\CCCC(=O)O", "note": "[19(S)-HETE]", "values": [{"measurement": "effect on the diameter of renal interlobular arteries (vasoconstrictor/agonist activity)", "setting": "[1]", "value": "no significant effect"}, {"measurement": "effect on the diameter of renal interlobular arteries (vasoconstrictor/agonist activity)", "setting": "[1]; listed as 19-HETE", "value": "no effect"}, {"measurement": "effect of analog on the vasoconstrictor response to 20-HETE (antagonist activity)", "setting": "[2]; listed as 19-HETE", "value": "completely eliminated the response to 20-HETE; also recorded: very effective antagonists"}]}, {"compound": "O=C(O)CCCCCCCCCCCCCCCCCCO", "note": "[saturated 19-carbon analog, 19-Hydroxynonadecanoic Acid]", "values": [{"measurement": "reduction of the vasoconstrictor response to 20-HETE", "setting": "[2]", "value": "about 50%"}, {"measurement": "effect of analog on the vasoconstrictor response to 20-HETE (antagonist activity)", "setting": "[2]", "value": "not as effective as the parent compounds"}]}, {"compound": "CCCCC[C@H](O)/C=C/C=C\\C/C=C\\C/C=C\\CCCC(=O)O", "note": "[15(S)-HETE]", "values": [{"measurement": "effect on the diameter of renal interlobular arteries (vasoconstrictor/agonist activity)", "setting": "[1]", "value": "no significant effect"}, {"measurement": "effect on the diameter of renal interlobular arteries (vasoconstrictor/agonist activity)", "setting": "[1]; listed as 15-HETE", "value": "no effect"}, {"measurement": "effect of analog on the vasoconstrictor response to 20-HETE (antagonist activity)", "setting": "[2]; listed as 15-HETE", "value": "completely blocked; also recorded: very effective antagonists; also recorded: blocked the vasoconstrictor response to 20-HETE"}]}, {"compound": "O=C(O)CCC/C=C\\CCCCCCC/C=C\\CCCCCO", "note": "[partially saturated 20-HETE derivative, 20-Hydroxyeicosa-5(Z),14(Z)-dienoic Acid]", "values": [{"measurement": "effect on the diameter of renal interlobular arteries (vasoconstrictor/agonist activity)", "setting": "[1]", "value": "potent a constrictor as 20-HETE"}, {"measurement": "effect on the diameter of renal interlobular arteries (vasoconstrictor/agonist activity)", "setting": "[1]; listed as partially saturated analog", "value": "retained vasoconstrictor activity"}]}, {"compound": "CCCCC/C=C\\C/C=C\\C=C\\[C@@H](O)C/C=C\\CCCC(=O)O", "note": "[8(S)-HETE]", "values": [{"measurement": "effect on the diameter of renal interlobular arteries (vasoconstrictor/agonist activity)", "setting": "[1]", "value": "no significant effect"}, {"measurement": "effect on the diameter of renal interlobular arteries (vasoconstrictor/agonist activity)", "setting": "[1]; listed as 8-HETE", "value": "no effect"}, {"measurement": "effect of analog on the vasoconstrictor response to 20-HETE (antagonist activity)", "setting": "[2]", "value": "no significant effect"}, {"measurement": "effect of analog on the vasoconstrictor response to 20-HETE (antagonist activity)", "setting": "[2]; listed as 8-HETE", "value": "did not antagonize"}]}, {"compound": "O=C(O)CCC/C=C\\C/C=C\\C/C=C\\C/C=C\\CCCCO", "note": "[C19-analog, 19-Hydroxynonadeca-5(Z),8(Z),11(Z),14(Z)-tetraenoic Acid]", "values": [{"measurement": "effect on the diameter of renal interlobular arteries (vasoconstrictor/agonist activity)", "setting": "[1]; listed as 19-carbon analog of 20-HETE", "value": "no significant effect"}, {"measurement": "effect on the diameter of renal interlobular arteries (vasoconstrictor/agonist activity)", "setting": "[1]; listed as 19-carbon derivative of 20-HETE", "value": "no effect"}, {"measurement": "effect of analog on the vasoconstrictor response to 20-HETE (antagonist activity)", "setting": "[2]", "value": "completely eliminated the response to 20-HETE"}, {"measurement": "effect of analog on the vasoconstrictor response to 20-HETE (antagonist activity)", "setting": "[2]; listed as C19 analog", "value": "very effective antagonists"}]}, {"compound": "CC(C)(O)CCCCC=CCC=CCC=CCC=CCCCC(=O)O", "note": "[dimethyl 20-HETE, 20,20-Dimethyl-20-HETE]", "values": [{"measurement": "effect on the diameter of renal interlobular arteries (vasoconstrictor/agonist activity)", "setting": "[1]", "value": "just as potent constrictors as 20-HETE"}, {"measurement": "effect on the diameter of renal interlobular arteries (vasoconstrictor/agonist activity)", "setting": "[1]; listed as dimethyl derivative", "value": "just as potent vasoconstrictors as 20-HETE"}]}]}
